# Measurements reported in PMC5321753, “Enhanced expression of ADCY1 underlies aberrant neuronal signalling and behaviour in a syndromic autism model” (Nature Communications, 2017).
# Key:
# [1] = tested on: WT mice; assay: Behavioural examinations in WT mice (Fig. 5e-h; Table 2); format: in vivo, mouse; conditions: NB001 1 mg kg^-1 IP, marble burying, light/dark, social interaction, AGS
# Method: Repetitive behaviour was determined by the marble burying test as described. 3-month-(+/−10 days) old mouse was placed in a regular mouse cage filled with 7.6 cm-deep bedding for 1 h before the test. The mouse was then briefly removed from the testing box and 15 marbles were evenly arranged in a 5 × 3 pattern on the surface of the bedding. The mouse was reintroduced into the testing box and was allowed to bury marbles for 10 min. At the end of the testing period, the number of marbles that were fully buried, partially buried and left on the surface was counted.
# Light/dark test was examined as described in our previous study. Light/dark test was performed using 3-month (+/−10 days) old mouse, which was first placed in the dark half of the chamber (Coulbourn Instruments). […] The time spent in each chamber and the number of entries into the lit side were recorded.
# Audiogenic seizures (AGS) were examined with 21- to 24-day-old-mouse (7), as this phenotype is dependent on the age of the mouse and only detected in juvenile Frm1 KO mouse. […] The number of mice undergoing seizure activity within the 2-min period was counted. […]
# Social interaction was determined by the 3-chamber test as described. […] The entrances were then opened and the activity of the test mouse was recorded. Time spent in each of the chambers and time spent sniffing the stranger mouse enclosure versus the empty enclosure were recorded. […]
# [2] = tested on: S6K1; assay: Immunoblot of phosphorylated and total S6K1 in hippocampus after i.p. injection; format: in vivo, mouse
# Method: (§1) Hippocampal tissues were collected from 3-month-(+/−10 days) old mice. […] The primers used for Adcy1 were […] (forward) and […] (reverse). The protein levels in hippocampal tissues collected from mice were determined by western blot using anti-ADCY1 (Sigma, Cat # SAB4500146-100UG, 1:1,000 dilution), anti-p-ERK1/2 (Cell Signaling, Cat # 9101L, 1:1,000 dilution), anti-pAkt (Cell Signaling, Cat # 9271, 1:1,000 dilution), anti-pS6K1 (Cell Signaling, Cat # 9204L for the detection of phosphorylation at Thr421/Ser424, Cat # 9234S for the detection of phosphorylation at Thr389, 1:1,000 dilution), anti-ERK1/2 (Cell Signaling, Cat # 9102L, 1:1,000 dilution), anti-Akt (Cell Signaling, Cat # 9272S, 1:1,000 dilution), anti-S6K1 (Cell Signaling, Cat # 9202L, 1:1,000 dilution) and anti-β-actin antibody (Sigma, Cat # A5441; 1:5,000 dilution). Following incubations with infrared fluorescence (IRDye)-conjugated secondary antibodies (1:5,000, LI-COR Biosciences, Cat # 926–32211 and 926–68070), signals were detected using the Odyssey system (LI-COR Biosciences). The un-cropped western blots are shown in Supplementary Fig. 10.
# (§2) NB001 was dissolved in water to give a 25 mM stock solution. The stock was diluted in saline and IP injected into mice at 1 mg kg^−1 body weight. In all cases, the drug was administered 1 h before testing. Control mice were treated similarly but injected with saline.
# [3] = tested on: ERK1/2; assay: Immunoblot of phosphorylated and total ERK1/2 in hippocampus after i.p. injection; format: in vivo, mouse; conditions: NB001 1 mg kg^-1 IP
# Method: as §1, §2
# [4] = tested on: WT and Fmr1 KO mice; assay: Light/dark test; format: in vivo, mouse
# Method: Light/dark test was examined as described in our previous study. Light/dark test was performed using 3-month (+/−10 days) old mouse, which was first placed in the dark half of the chamber (Coulbourn Instruments). After 1 min of habituation, the trap door was opened and the mouse was allowed to move freely between the two chambers for 5 min. The time spent in each chamber and the number of entries into the lit side were recorded.
# as §2
# (§3) To inhibit phosphodiesterase (PDE), rolipram was dissolved in 10% kolliphore and IP injected into mice at 0.5 or 0.03 mg kg^−1. The use of the higher dose (that is, 0.5 mg kg^−1) was to ensure sufficient inhibition of PDE[44][45]. […] Rolipram- or vehicle (10% kolliphore)-injected mice were examined with light/dark test and AGS 30 min after drug administration.
# [5] = tested on: mice; assay: NB001 toxicology study (body weight, organ weight, histology); format: in vivo, mouse
# Method: Mice at 3 months (+/−10 days) of age were IP injected with NB001 twice daily at 50 mg kg^−1 for 2 weeks. Clinical observations were performed twice daily and body weights were measured on various days during the dosing regimen. At the end of the dosing period, mice were killed and blood was collected for clinical pathology (Diagnostic Center for Population and Animal Health, Michigan State University). The liver and kidney were collected and fixed in 10% buffered formalin (INVIVO facility at Michigan State University).
# [6] = tested on: ADCY1; set-up: method as in PMID 21228397; conditions: intact cells; cited from earlier work
# [7] = tested on: WT and Fmr1 KO mice; assay: 3-chamber social interaction test; format: in vivo, mouse; conditions: NB001 1 mg kg^-1 IP, 1 h before testing; relative to WT level
# Method: Social interaction was determined by the 3-chamber test as described. Mouse at 3 months (+/−10 days) of age was placed in a 3-chamber social interaction box and allowed to explore freely for 5 min. […] During the test, mouse was placed in the center chamber and the entrances to the side chambers were blocked. A novel stimulus mouse in a wire enclosure and an empty wire enclosure were placed in one of the side chambers, respectively. The entrances were then opened and the activity of the test mouse was recorded. Time spent in each of the chambers and time spent sniffing the stranger mouse enclosure versus the empty enclosure were recorded.
# as §2
# [8] = tested on: WT and Fmr1 KO mice; assay: Audiogenic seizures (AGS) induced by 120 dB sound; format: in vivo, mouse; conditions: NB001 1 mg kg^-1 IP; for % Clonic/tonic seizure / % Death / % Wild running: 1 h before testing, 120 dB
# Method: Audiogenic seizures (AGS) were examined with 21- to 24-day-old-mouse (7), as this phenotype is dependent on the age of the mouse and only detected in juvenile Frm1 KO mouse. Mouse was placed in a box (30 cm L × 17 cm W × 12 cm H) with a flat plastic lid. A personal alarm (Streetwise, item # SWPDAL) was taped to the lid of the box and wired to a DC power supply to keep the sound amplitude constant. The mouse was allowed to acclimatize to the box for 5 min, following which 120 dB sound was emitted from the alarm for 2 min. The number of mice undergoing seizure activity within the 2-min period was counted. Audiogenic seizures were classified into different stages: wild running, clonic/tonic seizure and death.
# as §2, §3
# [9] = NB001 50 mg kg^-1 IP twice a day for 14 days
smiles,measurement,setting,value
"Nc1ncnc2c1ncn2CCNCCCCCO [NB001, 5-{[2-(6-amino-9H-purin-9-yl)ethyl]amino}-1-pentanol]",behaviour in WT mice,[1],did not cause measurable changes
same,elevated level of pS6K1 (at Thr421/Ser424) in the hippocampus,"[2]; Fmr1 KO mice, NB001 1 mg kg^-1 IP, 1 h after injection, relative to WT levels",normalized
same,phosphorylation of S6K1 in WT mice,"[2]; WT mice, NB001 1 mg kg^-1 IP, hippocampus",did not cause measurable changes
same,level of pS6K1 at PI3K target site Thr389,"[2]; hippocampus, acute NB001 1 mg kg^-1 IP, 1 h after injection",not affected
same,elevated level of p-ERK1/2 in the hippocampus,"[3]; Fmr1 KO mice, 1 h after injection, relative to WT levels",normalized
same,phosphorylation of ERK1/2 in WT mice,"[3]; WT mice, hippocampus",did not cause measurable changes
same,"transition between the light and dark chambers, NB001-injected Fmr1 KO versus WT mice","[4]; NB001 1 mg kg^-1 IP, 1 h before testing",comparable
same,"time spent in the lit chamber, difference between groups","[4]; WT and Fmr1 KO mice, vehicle or 1 mg per kg NB001",not significant
same,body weight,[5]; [9],did not affect
same,"weight of major organs including heart/lung, kidney and liver",[5]; [9],did not affect
same,histopathology in kidney and liver,"[5]; NB001 50 mg kg^-1 IP twice a day for 14 days, H&E staining",no significant sign of histopathology
same,side effects following two weeks of high dose administration,[5]; NB001 50 mg kg^-1 twice a day for 14 days,no significant side effects
same,inhibition of ADCY1 activity versus other types of adenylyl cyclases,[6],preferentially inhibits ADCY1 activity over other types of adenylyl cyclases
same,reduced social interaction in Fmr1 KO mice,[7],normalized
same,occurrence of AGS versus vehicle (saline)-injected controls,[8]; Fmr1 KO mice,less occurrence
same,% Clonic/tonic seizure,[8]; Fmr1 KO mice,5.8%
same,% Death,[8]; Fmr1 KO mice,5.8%
same,% Wild running,[8]; Fmr1 KO mice,35.2%
same,% Clonic/tonic seizure,[8]; WT mice,0%
same,% Death,[8]; WT mice,0%
same,% Wild running,[8]; WT mice,0%
